Experimental data reported in patent publication US11919902B2, “Aryl-bipyridine amine derivatives as phosphatidylinositol phosphate kinase inhibitors” (HiberCell, Inc., priority 2017, dated 2024).

Assays:
[1] = molecular target: T1, PIP4K2A (full length protein, SignalChem) (Homo sapiens, UniProt P48426); test: Kinase Assay PIP4K2 A (Sprint); ADP-Glo biochemical assay; details: Table 2; compounds listed under IC50 range headings
T1 construct: 4 nM PIP4K2A (full length protein, SignalChem); purchased SignalChem
T1 sequence (P48426 1-406): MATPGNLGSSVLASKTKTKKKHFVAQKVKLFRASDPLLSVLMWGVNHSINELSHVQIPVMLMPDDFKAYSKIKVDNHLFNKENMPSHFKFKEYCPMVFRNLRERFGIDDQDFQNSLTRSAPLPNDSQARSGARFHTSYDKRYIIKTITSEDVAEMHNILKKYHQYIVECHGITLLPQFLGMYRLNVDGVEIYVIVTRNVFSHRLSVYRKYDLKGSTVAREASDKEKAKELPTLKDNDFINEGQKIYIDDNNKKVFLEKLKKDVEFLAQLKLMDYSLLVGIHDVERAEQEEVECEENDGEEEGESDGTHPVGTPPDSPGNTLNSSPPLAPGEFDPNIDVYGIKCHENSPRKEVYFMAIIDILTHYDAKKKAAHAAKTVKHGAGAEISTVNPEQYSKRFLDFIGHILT
In short: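 ADP-Glo luminescence detected ADP after a 1 h RT reaction started with 60 μM ATP solution. Before that, full-length PIP4K2A (4 nM in mix) with 100 μM PI(5)P diC8 was pre-incubated 15 min with compounds in MOPS buffer pH 7.2, 25 mM MgCl2, 0.005% Tween 20. IC50 derived from % inhibition relative to DMSO over 10 three-fold concentrations.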

[2] = molecular target: T2, GST tagged PIP4KtypeIIB (Homo sapiens, UniProt P78356); test: Trans-FI P kinase assay PIP4K2B (PIP4KtypeIIB inhibition assay); format: biochemical; details: Table 4; compounds listed under IC50 range headings; 100 uM GTP, 5 nM PIP4KIIB; read-out: Trans-FI P kinase assays: PIP4K2B IC50
T2 construct: made in house; host or cells: E. coli
T2 sequence (P78356 1-416): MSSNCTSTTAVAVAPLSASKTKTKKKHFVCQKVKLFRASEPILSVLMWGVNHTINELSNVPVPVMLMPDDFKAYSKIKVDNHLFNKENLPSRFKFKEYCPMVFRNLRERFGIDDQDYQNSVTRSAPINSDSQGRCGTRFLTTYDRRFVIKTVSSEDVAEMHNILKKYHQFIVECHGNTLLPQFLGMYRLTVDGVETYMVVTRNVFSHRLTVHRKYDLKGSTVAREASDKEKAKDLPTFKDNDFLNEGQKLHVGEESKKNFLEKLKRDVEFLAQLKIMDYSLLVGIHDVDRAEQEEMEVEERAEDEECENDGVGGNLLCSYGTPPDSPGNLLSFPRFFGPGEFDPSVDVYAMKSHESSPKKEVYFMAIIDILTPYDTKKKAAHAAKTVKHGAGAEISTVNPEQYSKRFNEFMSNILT
In short: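 Transcreener FI fluorescence, converted to GDP by calibration, tracked product from 5 nM E. coli-expressed GST-PIP4KIIB acting on 80 uM PI5P (DOPE carrier) with 100 uM GTP. Compound (top 4.8 uM final, 5% DMSO) was preincubated 1 h at 27 C before the 2 h reaction; IC50 fitted from residual activity.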

[3] = molecular target: T3, GST tagged PIP4KtypeIIA (Homo sapiens, UniProt P48426); test: ADP-glo kinase assay PIP4K 2A (PIP4KtypeIIA inhibition assay); format: biochemical; details: Table 3; compounds listed under IC50 range headings; 10 uM ATP, 0.5 nM PIP4KIIA
T3 construct: made in house; host or cells: E. coli
T3 sequence (P48426 1-406): T1 sequence (P48426 1-406)
In short: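 Read-out was ADP-Glo luminescence converted to μM ADP, with IC50 plotted as % of no-inhibitor activity against log concentration. Reactions contained 10 μM ATP, 80 μM PI5P with DOPE carrier, and 0.5 nM GST-tagged PIP4KIIA (E. coli-expressed) in pH 7.3 HEPES/MgCl2 buffer with 5% DMSO. Enzyme and compound (≤4.8 μM) were preincubated 1 h at 27 °C before the 1 h reaction.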

Work on `CN(C)C(=O)c1ccc(-c2cc(-c3ccnc(CNC(=O)CCc4cccc(N)c4)c3)cnc2N)nc1` [Example 194, 2′-amino-2″-((3-(3-aminophenyl)propanamido)methyl)-N,N-dimethyl-[2,3′:5′,4″-terpyridine]-5-carboxamide] yielded an IC50 [1] of 1000 to 2500 nM, an IC50 [2] of 2500 to 5000 nM and an IC50 [3] greater than 5000 nM.
`Cc1c(-c2cncc(-c3ccc(N4CCCC4=O)cc3)c2)c2cc(C(=O)N(C)C)cnc2n1C` [Example 249, N,N,1,2-tetramethyl-3-(5-(4-(2-oxopyrrolidin-1-yl)phenyl)pyridin-3-yl)-1H-pyrrolo[2,3-b]pyridine-5-carboxamide] gave an IC50 [1] of 5 to 100 nM, an IC50 [2] of 100 to 1000 nM and an IC50 [3] of 100 to 1000 nM.
`CN(C)C(=O)c1ccc(-c2cc(-c3ccnc4nc[nH]c34)cnc2N)nc1` [Example 213, 2′-amino-5′-(1H-imidazo[4,5-b]pyridin-7-yl)-N,N-dimethyl-[2,3′-bipyridine]-5-carboxamide] showed an IC50 [1] of 100 to 1000 nM, an IC50 [2] of 1000 to 2500 nM and an IC50 [3] of 2500 to 5000 nM.
With `Nc1ncc(-c2ccnc3[nH]c(C(=O)NCC(F)(F)F)cc23)cc1-c1ccc(C(=O)NCC(F)(F)F)cn1` [Example 139, 4-(2′-amino-5-((2,2,2-trifluoroethyl)carbamoyl)-[2,3′-bipyridin]-5′-yl)-N-(2,2,2-trifluoroethyl)-1H-pyrrolo[2,3-b]pyridine-2-carboxamide] the IC50 [1] was less than 5000 nM, the IC50 [2] was 2500 to 5000 nM and the IC50 [3] was greater than 5000 nM.
`COc1ncc(-c2cncc(-c3ccc(N4CCCC4=O)cc3)c2)c2c[nH]nc12` [Example 270, 1-(4-(5-(7-methoxy-2H-pyrazolo[3,4-c]pyridin-4-yl)pyridin-3-yl)phenyl)pyrrolidin-2-one] was tested, and the IC50 [1] was 5 to 100 nM, the IC50 [2] was 100 to 1000 nM and the IC50 [3] was 100 to 1000 nM.
`O=C1CCCN1c1ccc(-c2cncc(-c3c(OC4CCOCC4)cnc4[nH]ccc34)c2)cc1` [Example 268, 1-(4-(5-(5-((tetrahydro-2H-pyran-4-yl)oxy)-1H-pyrrolo[2,3-b]pyridin-4-yl)pyridin-3-yl)phenyl)pyrrolidin-2-one] was tested, and the IC50 [1] was 1000 to 2500 nM, the IC50 [2] was 1000 to 2500 nM and the IC50 [3] was greater than 5000 nM.
Molecule `CN(C)C(=O)c1ccc(-c2cc(-c3ccnc4ccccc34)cnc2N)nc1` [Example 20, 2′-amino-N,N-dimethyl-5′-(quinolin-4-yl)-[2,3′-bipyridine]-5-carboxamide] has an IC50 [1] of 100 to 1000 nM, an IC50 [2] of 100 to 1000 nM and an IC50 [3] of 1000 to 2500 nM.
`Cn1cc(-c2cncc(-c3ccc(N4CCCC4=O)cc3)c2)ccc1=O` [Example 37, 1-methyl-5′-(4-(2-oxopyrrolidin-1-yl)phenyl)-[3,3′-bipyridin]-6(1H)-one] gave an IC50 [1] of 2500 to 5000 nM, an IC50 [2] greater than 5000 nM and an IC50 [3] greater than 5000 nM.
Work on `O=C1CCCN1c1ccc(-c2cncc(-c3ncnc4n[nH]cc34)c2)cc1` [Example 223, 1-(4-(5-(2H-pyrazolo[3,4-d]pyrimidin-4-yl)pyridin-3-yl)phenyl)pyrrolidin-2-one] yielded an IC50 [1] of 100 to 1000 nM, an IC50 [2] of 100 to 1000 nM and an IC50 [3] of 100 to 1000 nM.
`CN(C)C(=O)c1cnc2n[nH]c(-c3cncc(-c4ccc(N5CCCC5=O)cc4)c3)c2c1` [Example 227, N,N-dimethyl-3-(5-(4-(2-oxopyrrolidin-1-yl)phenyl)pyridin-3-yl)-2H-pyrazolo[3,4-b]pyridine-5-carboxamide] gave an IC50 [1] of 5 to 100 nM, an IC50 [2] of 100 to 1000 nM and an IC50 [3] of 100 to 1000 nM.
With `CNC(=O)c1cc2c(-c3cncc(-c4ccc(N5CCCC5=O)cc4C)c3)ccnc2o1` [Example 170, N-methyl-4-(5-(2-methyl-4-(2-oxopyrrolidin-1-yl)phenyl)pyridin-3-yl)furo[2,3-b]pyridine-2-carboxamide] the IC50 [1] was 5 to 100 nM, the IC50 [2] was 100 to 1000 nM and the IC50 [3] was 100 to 1000 nM.
`O=C1CCCN1c1ccc(-c2cncc(-c3c[nH]c(=O)c4[nH]ncc34)c2)cc1` [Example 74, 4-(5-(4-(2-oxopyrrolidin-1-yl)phenyl)pyridin-3-yl)-1,6-dihydro-7H-pyrazolo[3,4-c]pyridin-7-one] gave an IC50 [1] of 5 to 100 nM, an IC50 [2] of 100 to 1000 nM and an IC50 [3] of 100 to 1000 nM.
Molecule `CCOC(=O)c1cc2c(-c3cncc(-c4ccc(N5CCCC5=O)cc4)c3)ccnc2[nH]1` [Example 162, ethyl 4-(5-(4-(2-oxopyrrolidin-1-yl)phenyl)pyridin-3-yl)-1H-pyrrolo[2,3-b]pyridine-2-carboxylate] has an IC50 [1] of 5 to 100 nM, an IC50 [2] of 10 to 100 nM and an IC50 [3] of 100 to 1000 nM.
For `CN(C)C(=O)c1ccc(-c2cc(-c3cnc4c(c3)c(-c3cccnc3)nn4C)cnc2N)nc1` [Example 123, 2′-amino-N,N-dimethyl-5′-(1-methyl-3-(pyridin-3-yl)-1H-pyrazolo[3,4-b]pyridin-5-yl)-[2,3′-bipyridine]-5-carboxamide], the IC50 [1] was 100 to 1000 nM, the IC50 [2] was greater than 5000 nM and the IC50 [3] was 1000 to 2500 nM.
Work on `CNC(=O)c1cc2c(-c3cnc(N)c(-c4ccc(N5CCCC5=O)cc4)c3)ccnc2o1` [Example 85, 4-(6-amino-5-(4-(2-oxopyrrolidin-1-yl)phenyl)pyridin-3-yl)-N-methylfuro[2,3-b]pyridine-2-carboxamide] yielded an IC50 [1] of 1 to 5 nM, an IC50 [2] of 1 to 10 nM and an IC50 [3] of 10 to 100 nM.
`Cc1c(-c2ccc(N3CCCC3=O)cc2)cncc1-c1ccnc2[nH]c(C(=O)N(C)C)cc12` [Example 173, N,N-dimethyl-4-(4-methyl-5-(4-(2-oxopyrrolidin-1-yl)phenyl)pyridin-3-yl)-1H-pyrrolo[2,3-b]pyridine-2-carboxamide] gave an IC50 [1] of 5 to 100 nM, an IC50 [2] of 100 to 1000 nM and an IC50 [3] of 100 to 1000 nM.
`CN(C)C(=O)c1ccc(-c2cc(-c3ccnc4cccc(C#N)c34)cnc2N)nc1` [Example 118, 2′-amino-5′-(5-cyanoquinolin-4-yl)-N,N-dimethyl-[2,3′-bipyridine]-5-carboxamide] gave an IC50 [1] of less than 5000 nM, an IC50 [2] greater than 5000 nM and an IC50 [3] greater than 5000 nM.
`Cn1ncc2c(-c3cncc(-c4ccc(N5CCCC5=O)cc4)c3)ccnc21` [Example 218, 1-(4-(5-(1-methyl-1H-pyrazolo[3,4-b]pyridin-4-yl)pyridin-3-yl)phenyl)pyrrolidin-2-one] was tested, and the IC50 [1] was 5 to 100 nM, the IC50 [2] was 100 to 1000 nM and the IC50 [3] was 100 to 1000 nM.
Molecule `CN(C)C(=O)c1ccc(-c2cc(-c3ccnc(CNC(=O)c4cccc(N)c4)c3)cnc2N)nc1` [Example 191, 2′-amino-2″-((3-aminobenzamido)methyl)-N,N-dimethyl-[2,3′:5′,4″-terpyridine]-5-carboxamide] has an IC50 [1] of 1000 to 2500 nM, an IC50 [2] of 1000 to 2500 nM and an IC50 [3] greater than 5000 nM.
`O=C1CCCN1c1ccc(-c2cncc(-c3cc(C4CC4)nc4n[nH]cc34)c2)cc1` [Example 267, 1-(4-(5-(6-cyclopropyl-2H-pyrazolo[3,4-b]pyridin-4-yl)pyridin-3-yl)phenyl)pyrrolidin-2-one] was tested, and the IC50 [1] was 5 to 100 nM, the IC50 [2] was 100 to 1000 nM and the IC50 [3] was 100 to 1000 nM.
`CN(C)C(=O)c1cnc2[nH]cc(-c3cncc(-c4ccc(N5CCCC5=O)cc4)c3)c2c1` [Example 72, N,N-dimethyl-3-(5-(4-(2-oxopyrrolidin-1-yl)phenyl)pyridin-3-yl)-1H-pyrrolo[2,3-b]pyridine-5-carboxamide] showed an IC50 [1] of 5 to 100 nM, an IC50 [2] of 100 to 1000 nM and an IC50 [3] of 100 to 1000 nM.
Work on `COCCNC(=O)c1cc2c(-c3cncc(-c4ccc(N5CCCC5=O)cc4)c3)ccnc2o1` [Example 80, N-(2-methoxyethyl)-4-(5-(4-(2-oxopyrrolidin-1-yl)phenyl)pyridin-3-yl)furo[2,3-b]pyridine-2-carboxamide] yielded an IC50 [1] of 5 to 100 nM, an IC50 [2] of 10 to 100 nM and an IC50 [3] of 100 to 1000 nM.
With `CN(C[C@H]1CC[C@H](N)CC1)C(=O)c1ccc(-c2cncc(-c3ccncc3)c2)cc1` [Example 181, 4-([3,4′-bipyridin]-5-yl)-N-(((1r,4r)-4-aminocyclohexyl)methyl)-N-methylbenzamide] the IC50 [1] was less than 5000 nM, the IC50 [2] was greater than 5000 nM and the IC50 [3] was greater than 5000 nM.
